ChEMBL document CHEMBL1909046, “DrugMatrix in vitro pharmacology data”

Legend:
[1] = biological target: T1, Vasoactive intestinal polypeptide receptor 1 (Homo sapiens, UniProt P32241); assay type: cell membranes, Membrane; conditions: ht-29; note: in other assays of this panel Not Active means under 50% inhibition at 10 µM
T1 sequence (P32241 whole entry): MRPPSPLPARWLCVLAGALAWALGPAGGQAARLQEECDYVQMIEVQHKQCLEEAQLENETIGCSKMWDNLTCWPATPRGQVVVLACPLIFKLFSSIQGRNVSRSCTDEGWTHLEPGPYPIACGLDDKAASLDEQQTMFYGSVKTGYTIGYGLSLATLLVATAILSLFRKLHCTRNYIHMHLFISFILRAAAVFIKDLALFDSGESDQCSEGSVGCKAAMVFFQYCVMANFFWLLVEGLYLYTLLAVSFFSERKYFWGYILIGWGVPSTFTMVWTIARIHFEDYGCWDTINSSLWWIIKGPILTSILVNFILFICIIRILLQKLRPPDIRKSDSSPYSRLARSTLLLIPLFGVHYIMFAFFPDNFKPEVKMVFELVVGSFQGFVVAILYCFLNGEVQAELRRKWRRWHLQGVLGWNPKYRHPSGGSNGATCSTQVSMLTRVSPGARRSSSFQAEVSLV

Leukotriene C4 synthase = biological target: T2, Leukotriene C4 synthase (Cavia porcellus, UniProt A6XA80); test: biochemical; assay type: tissue-based, Lung;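 note: enzyme inhibition assay of leukotriene C4 synthase, using LTA4 as the substrate; in other assays of this panel Not Active means under 50% inhibition at 10 µM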
T2 sequence (A6XA80 whole entry): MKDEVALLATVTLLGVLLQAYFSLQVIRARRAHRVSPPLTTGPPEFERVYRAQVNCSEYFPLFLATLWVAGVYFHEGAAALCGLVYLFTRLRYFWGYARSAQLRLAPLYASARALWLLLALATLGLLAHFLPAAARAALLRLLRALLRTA

[2] = biological target: T3, Cysteinyl leukotriene receptor 1 (Homo sapiens, UniProt Q9Y271); assay type: cell membranes, CHO-K1, Membrane; conditions: cho-k1; note: in other assays of this panel Not Active means under 50% inhibition at 10 µM
T3 sequence (Q9Y271 whole entry): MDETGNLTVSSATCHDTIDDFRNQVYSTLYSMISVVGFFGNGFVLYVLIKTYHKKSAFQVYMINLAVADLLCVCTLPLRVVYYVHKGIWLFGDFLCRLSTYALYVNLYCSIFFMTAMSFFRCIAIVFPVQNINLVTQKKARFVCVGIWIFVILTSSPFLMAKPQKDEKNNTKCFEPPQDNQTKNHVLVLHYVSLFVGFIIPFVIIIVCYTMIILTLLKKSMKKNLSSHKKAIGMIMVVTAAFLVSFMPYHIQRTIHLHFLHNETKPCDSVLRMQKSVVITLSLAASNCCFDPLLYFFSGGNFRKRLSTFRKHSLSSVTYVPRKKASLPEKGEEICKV

Nitric oxide synthase 1 = Nitric oxide synthase 1 (Rattus norvegicus, UniProt P29476); assay type: tissue-based, Cerebellum; note: in other assays of this panel Not Active means under 50% inhibition at 10 µM
[3] = biological target: Protein kinase C alpha type (Homo sapiens, UniProt P17252); assay type: cell-based; conditions: sf9
[4] = biological target: Epidermal growth factor receptor (Homo sapiens, UniProt P00533); test: DRUGMATRIX: Protein Tyrosine Kinase, EGF Receptor enzyme inhibition (substrate: Poly(Glu:Tyr)); assay type: cell-based, Insect cells; conditions: insect cells; Not Active = under 50% inhibition at 10 µM
[5] = biological target: Receptor tyrosine-protein kinase erbB-2 (Homo sapiens, UniProt P04626); assay type: cell-based; conditions: insect cells
Cytochrome P450 3A4 = Cytochrome P450 3A4 (Homo sapiens, UniProt P08684); conditions: bti-tn-5b1-4; note: in other assays of this panel Not Active means under 50% inhibition at 10 µM
Sequence of Cytochrome P450 3A4 (P08684 whole entry): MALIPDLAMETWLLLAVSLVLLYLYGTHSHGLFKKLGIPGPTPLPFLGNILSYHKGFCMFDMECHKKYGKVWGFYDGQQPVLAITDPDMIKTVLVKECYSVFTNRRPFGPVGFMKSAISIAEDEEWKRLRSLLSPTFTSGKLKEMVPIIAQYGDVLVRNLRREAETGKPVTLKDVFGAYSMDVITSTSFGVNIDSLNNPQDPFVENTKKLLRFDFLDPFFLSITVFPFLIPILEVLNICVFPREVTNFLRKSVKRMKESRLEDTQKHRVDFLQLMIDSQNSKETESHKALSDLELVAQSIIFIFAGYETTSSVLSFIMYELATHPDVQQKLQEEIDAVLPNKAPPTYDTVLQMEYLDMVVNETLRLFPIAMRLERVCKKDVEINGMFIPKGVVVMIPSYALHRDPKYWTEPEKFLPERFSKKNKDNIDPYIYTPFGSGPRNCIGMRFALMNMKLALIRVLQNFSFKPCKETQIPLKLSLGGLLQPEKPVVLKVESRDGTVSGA

Sequence of Receptor tyrosine-protein kinase erbB-2 (P04626 whole entry): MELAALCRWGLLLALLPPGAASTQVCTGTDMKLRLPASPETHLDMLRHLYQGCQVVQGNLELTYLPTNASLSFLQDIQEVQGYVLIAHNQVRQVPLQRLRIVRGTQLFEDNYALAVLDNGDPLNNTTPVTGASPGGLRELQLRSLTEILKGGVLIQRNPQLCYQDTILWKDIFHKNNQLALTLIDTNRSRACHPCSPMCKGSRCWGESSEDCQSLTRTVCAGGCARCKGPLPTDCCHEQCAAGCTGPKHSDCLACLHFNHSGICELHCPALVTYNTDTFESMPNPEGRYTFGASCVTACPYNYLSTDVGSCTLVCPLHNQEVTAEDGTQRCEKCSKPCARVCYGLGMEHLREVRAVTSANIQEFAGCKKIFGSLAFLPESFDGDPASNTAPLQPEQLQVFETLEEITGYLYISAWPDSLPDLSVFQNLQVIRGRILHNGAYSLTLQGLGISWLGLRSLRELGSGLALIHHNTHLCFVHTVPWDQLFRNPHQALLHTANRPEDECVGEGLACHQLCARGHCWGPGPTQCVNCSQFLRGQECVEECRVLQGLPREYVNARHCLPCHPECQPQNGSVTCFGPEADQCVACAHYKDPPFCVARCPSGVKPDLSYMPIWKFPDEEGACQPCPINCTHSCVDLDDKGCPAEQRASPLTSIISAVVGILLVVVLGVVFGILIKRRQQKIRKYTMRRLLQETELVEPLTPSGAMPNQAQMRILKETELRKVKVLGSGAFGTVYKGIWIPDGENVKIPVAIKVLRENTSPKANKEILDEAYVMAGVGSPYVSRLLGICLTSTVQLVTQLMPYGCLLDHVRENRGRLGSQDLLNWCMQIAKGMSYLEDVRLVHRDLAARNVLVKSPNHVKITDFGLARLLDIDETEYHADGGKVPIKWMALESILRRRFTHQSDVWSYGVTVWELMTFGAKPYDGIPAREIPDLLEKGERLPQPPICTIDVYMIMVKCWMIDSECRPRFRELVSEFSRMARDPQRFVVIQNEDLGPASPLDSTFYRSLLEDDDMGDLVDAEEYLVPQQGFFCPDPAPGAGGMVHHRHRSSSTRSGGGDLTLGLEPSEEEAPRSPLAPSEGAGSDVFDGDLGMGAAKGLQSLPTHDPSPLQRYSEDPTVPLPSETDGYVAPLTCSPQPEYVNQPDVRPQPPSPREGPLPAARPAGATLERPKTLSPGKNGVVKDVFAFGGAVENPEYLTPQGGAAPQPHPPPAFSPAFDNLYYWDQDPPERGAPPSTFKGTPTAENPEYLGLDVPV
Sequence of Epidermal growth factor receptor (P00533 whole entry): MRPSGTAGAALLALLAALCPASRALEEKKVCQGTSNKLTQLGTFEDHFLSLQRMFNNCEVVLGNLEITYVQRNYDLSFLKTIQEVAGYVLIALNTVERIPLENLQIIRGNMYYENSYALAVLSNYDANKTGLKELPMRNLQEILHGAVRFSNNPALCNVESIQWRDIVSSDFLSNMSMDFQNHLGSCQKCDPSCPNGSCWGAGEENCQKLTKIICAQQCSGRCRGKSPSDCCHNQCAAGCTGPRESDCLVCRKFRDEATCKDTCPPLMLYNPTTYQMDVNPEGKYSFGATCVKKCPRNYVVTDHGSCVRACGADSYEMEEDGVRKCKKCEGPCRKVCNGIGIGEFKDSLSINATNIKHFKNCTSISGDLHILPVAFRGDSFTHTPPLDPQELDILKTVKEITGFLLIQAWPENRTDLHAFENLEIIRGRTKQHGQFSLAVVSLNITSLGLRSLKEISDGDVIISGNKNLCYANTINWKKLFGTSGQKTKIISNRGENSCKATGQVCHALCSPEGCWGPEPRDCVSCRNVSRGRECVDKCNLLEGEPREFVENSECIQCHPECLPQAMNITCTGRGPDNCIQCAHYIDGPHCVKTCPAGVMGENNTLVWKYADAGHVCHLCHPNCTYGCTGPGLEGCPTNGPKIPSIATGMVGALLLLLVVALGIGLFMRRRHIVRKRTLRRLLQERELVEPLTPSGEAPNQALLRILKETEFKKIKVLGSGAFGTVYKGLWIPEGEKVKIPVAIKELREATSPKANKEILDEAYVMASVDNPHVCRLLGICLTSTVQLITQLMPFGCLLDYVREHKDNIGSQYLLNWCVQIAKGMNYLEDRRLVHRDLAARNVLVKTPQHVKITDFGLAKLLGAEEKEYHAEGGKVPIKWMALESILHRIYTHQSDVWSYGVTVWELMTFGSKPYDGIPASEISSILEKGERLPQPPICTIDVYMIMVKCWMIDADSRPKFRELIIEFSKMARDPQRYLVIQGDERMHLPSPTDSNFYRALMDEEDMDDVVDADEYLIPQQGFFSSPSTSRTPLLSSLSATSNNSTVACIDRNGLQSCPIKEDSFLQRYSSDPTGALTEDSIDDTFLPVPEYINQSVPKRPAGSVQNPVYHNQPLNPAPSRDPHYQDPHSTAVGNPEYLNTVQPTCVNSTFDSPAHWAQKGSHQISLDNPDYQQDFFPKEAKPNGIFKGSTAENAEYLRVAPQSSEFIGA
Sequence of Nitric oxide synthase 1 (P29476 whole entry): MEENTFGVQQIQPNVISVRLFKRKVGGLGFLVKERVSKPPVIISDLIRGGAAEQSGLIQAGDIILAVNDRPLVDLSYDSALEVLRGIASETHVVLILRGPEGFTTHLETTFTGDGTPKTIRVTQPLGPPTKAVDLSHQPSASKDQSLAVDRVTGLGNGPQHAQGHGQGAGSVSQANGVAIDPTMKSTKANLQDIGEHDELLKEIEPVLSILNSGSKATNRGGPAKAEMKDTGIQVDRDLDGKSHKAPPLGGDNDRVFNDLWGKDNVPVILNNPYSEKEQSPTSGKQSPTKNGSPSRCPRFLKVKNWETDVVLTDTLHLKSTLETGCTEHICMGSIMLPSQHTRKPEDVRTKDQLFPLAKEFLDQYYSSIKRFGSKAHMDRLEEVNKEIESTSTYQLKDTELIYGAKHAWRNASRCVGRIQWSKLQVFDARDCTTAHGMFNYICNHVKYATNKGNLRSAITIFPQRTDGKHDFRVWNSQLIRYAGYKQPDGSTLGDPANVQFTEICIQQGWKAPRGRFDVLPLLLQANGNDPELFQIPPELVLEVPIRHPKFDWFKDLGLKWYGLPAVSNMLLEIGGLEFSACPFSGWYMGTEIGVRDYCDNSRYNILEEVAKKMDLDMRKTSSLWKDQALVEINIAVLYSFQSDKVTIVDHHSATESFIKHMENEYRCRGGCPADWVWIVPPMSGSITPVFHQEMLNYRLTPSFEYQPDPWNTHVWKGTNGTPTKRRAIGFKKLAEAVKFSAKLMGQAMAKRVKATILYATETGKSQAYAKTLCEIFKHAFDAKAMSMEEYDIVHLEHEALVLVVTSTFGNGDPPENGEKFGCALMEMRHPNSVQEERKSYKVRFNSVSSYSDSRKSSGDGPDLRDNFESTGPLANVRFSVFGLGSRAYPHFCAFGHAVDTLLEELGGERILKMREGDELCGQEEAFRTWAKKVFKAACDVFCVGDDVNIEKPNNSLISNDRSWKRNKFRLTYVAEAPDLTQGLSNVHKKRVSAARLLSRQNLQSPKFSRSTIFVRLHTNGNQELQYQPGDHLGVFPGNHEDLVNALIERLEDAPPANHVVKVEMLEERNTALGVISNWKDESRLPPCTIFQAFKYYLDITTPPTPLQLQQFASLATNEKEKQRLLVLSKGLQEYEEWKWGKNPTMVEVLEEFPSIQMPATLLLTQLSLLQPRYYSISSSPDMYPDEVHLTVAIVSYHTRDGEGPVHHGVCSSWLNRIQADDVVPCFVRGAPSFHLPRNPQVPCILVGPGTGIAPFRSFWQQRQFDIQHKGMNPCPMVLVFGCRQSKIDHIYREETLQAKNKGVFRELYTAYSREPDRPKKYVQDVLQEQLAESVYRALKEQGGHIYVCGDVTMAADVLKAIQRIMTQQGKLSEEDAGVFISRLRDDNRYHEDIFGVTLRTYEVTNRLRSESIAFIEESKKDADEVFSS

NC(N)=Nc1nc(CSCCC(N)=NS(N)(=O)=O)cs1 [FAMOTIDINE]
Not Active: IC50 [1] | IC50 (Leukotriene C4 synthase) | IC50 [2] | IC50 (Nitric oxide synthase 1) | IC50 [3] | IC50 [4] | IC50 [5] | IC50 (Cytochrome P450 3A4) | Ki (Cytochrome P450 3A4)

COC(=O)Nc1nc2ccc(Sc3ccccc3)cc2[nH]1 [FENBENDAZOLE]
Not Active: IC50 [1] | IC50 (Leukotriene C4 synthase) | IC50 [2] | IC50 (Nitric oxide synthase 1) | IC50 [3] | IC50 [4] | IC50 [5] | IC50 (Cytochrome P450 3A4) | Ki (Cytochrome P450 3A4)

COc1cc(/C=C/C(=O)O)ccc1O [FERULATE]
Not Active: IC50 [1] | IC50 (Leukotriene C4 synthase) | IC50 [2] | IC50 (Nitric oxide synthase 1) | IC50 [3] | IC50 [4] | IC50 [5] | IC50 (Cytochrome P450 3A4) | Ki (Cytochrome P450 3A4)

Nc1nc(F)nc2c1ncn2[C@@H]1O[C@H](CO)[C@@H](O)[C@@H]1O [FLUDARABINE]
Not Active: IC50 [1] | IC50 (Leukotriene C4 synthase) | IC50 [2] | IC50 (Nitric oxide synthase 1) | IC50 [3] | IC50 [4] | IC50 [5] | IC50 (Cytochrome P450 3A4) | Ki (Cytochrome P450 3A4)

C[C@H](C(=O)O)c1ccc2oc(-c3ccc(F)cc3)nc2c1 [FLUNOXAPROFEN]
Not Active: IC50 [1] | IC50 (Leukotriene C4 synthase) | IC50 [2] | IC50 (Nitric oxide synthase 1) | IC50 [3] | IC50 [4] | IC50 [5] | IC50 (Cytochrome P450 3A4) | Ki (Cytochrome P450 3A4)

O=C(O)CO [GLYCOLIC ACID]
Not Active: IC50 [1] | IC50 (Leukotriene C4 synthase) | IC50 [2] | IC50 (Nitric oxide synthase 1) | IC50 [3] | IC50 [4] | IC50 [5] | IC50 (Cytochrome P450 3A4) | Ki (Cytochrome P450 3A4)

Clc1cc(Cl)c(OCC#CI)cc1Cl [HALOPROGIN]
Not Active: IC50 [1] | IC50 (Leukotriene C4 synthase) | IC50 [2] | IC50 (Nitric oxide synthase 1) | IC50 [3] | IC50 [4] | IC50 [5] | IC50 (Cytochrome P450 3A4) | Ki (Cytochrome P450 3A4)

COC(=O)C[C@](O)(CCC(C)(C)O)C(=O)O[C@@H]1C(OC)=C[C@]23CCCN2CCc2cc4c(cc2[C@H]13)OCO4 [HARRINGTONINE]
Not Active: IC50 [1] | IC50 (Leukotriene C4 synthase) | IC50 [2] | IC50 (Nitric oxide synthase 1) | IC50 [3] | IC50 [4] | IC50 [5] | IC50 (Cytochrome P450 3A4) | Ki (Cytochrome P450 3A4)

CC(=O)[C@]1(O)Cc2c(O)c3c(c(O)c2[C@@H](O[C@H]2C[C@H](N)[C@H](O)[C@H](C)O2)C1)C(=O)c1ccccc1C3=O [IDARUBICIN]
Not Active: IC50 [1] | IC50 (Leukotriene C4 synthase) | IC50 [2] | IC50 (Nitric oxide synthase 1) | IC50 [3] | IC50 [4] | IC50 [5] | IC50 (Cytochrome P450 3A4) | Ki (Cytochrome P450 3A4)

CC(C)Cn1cnc2c(N)nc3ccccc3c21 [IMIQUIMOD]
Not Active: IC50 [1] | IC50 (Leukotriene C4 synthase) | IC50 [2] | IC50 (Nitric oxide synthase 1) | IC50 [3] | IC50 [4] | IC50 [5] | IC50 (Cytochrome P450 3A4) | Ki (Cytochrome P450 3A4)

O=C(NCCN1CCOCC1)c1ccc(Cl)cc1 [MOCLOBEMIDE]
Not Active: IC50 [1] | IC50 (Leukotriene C4 synthase) | IC50 [2] | IC50 (Nitric oxide synthase 1) | IC50 [3] | IC50 [4] | IC50 [5] | IC50 (Cytochrome P450 3A4) | Ki (Cytochrome P450 3A4)

C=CCN1CC[C@]23c4c5ccc(O)c4O[C@H]2/C(=N/N=C2\CC[C@@]4(O)[C@H]6Cc7ccc(O)c8c7[C@@]4(CCN6CC=C)[C@H]2O8)CC[C@@]3(O)[C@H]1C5 [NALOXONAZINE]
Not Active: IC50 [1] | IC50 (Leukotriene C4 synthase) | IC50 [2] | IC50 (Nitric oxide synthase 1) | IC50 [3] | IC50 [4] | IC50 [5] | IC50 (Cytochrome P450 3A4) | Ki (Cytochrome P450 3A4)

Cc1ccnc2c1NC(=O)c1cccnc1N2C1CC1 [NEVIRAPINE]
Not Active: IC50 [1] | IC50 (Leukotriene C4 synthase) | IC50 [2] | IC50 (Nitric oxide synthase 1) | IC50 [3] | IC50 [4] | IC50 [5] | IC50 (Cytochrome P450 3A4) | Ki (Cytochrome P450 3A4)

O=C1CN(/N=C/c2ccc([N+](=O)[O-])o2)C(=O)N1 [NITROFURANTOIN]
Not Active: IC50 [1] | IC50 (Leukotriene C4 synthase) | IC50 [2] | IC50 (Nitric oxide synthase 1) | IC50 [3] | IC50 [4] | IC50 [5] | IC50 (Cytochrome P450 3A4) | Ki (Cytochrome P450 3A4)

O=C(O)CCc1nc(-c2ccccc2)c(-c2ccccc2)o1 [OXAPROZIN]
Not Active: IC50 [1] | IC50 (Leukotriene C4 synthase) | IC50 [2] | IC50 (Nitric oxide synthase 1) | IC50 [3] | IC50 [4] | IC50 [5] | IC50 (Cytochrome P450 3A4) | Ki (Cytochrome P450 3A4)

Cc1cc(C(C)(C)C)c(O)c(C)c1CC1=NCCN1 [OXYMETAZOLINE]
Not Active: IC50 [1] | IC50 (Leukotriene C4 synthase) | IC50 [2] | IC50 (Nitric oxide synthase 1) | IC50 [3] | IC50 [4] | IC50 [5] | IC50 (Cytochrome P450 3A4) | Ki (Cytochrome P450 3A4)

NC(=O)NC(=O)Cc1ccccc1 [PHENACEMIDE]
Not Active: IC50 [1] | IC50 (Leukotriene C4 synthase) | IC50 [2] | IC50 (Nitric oxide synthase 1) | IC50 [3] | IC50 [4] | IC50 [5] | IC50 (Cytochrome P450 3A4) | Ki (Cytochrome P450 3A4)

O=C1c2ccccc2C(=O)C1c1ccccc1 [PHENINDIONE]
Not Active: IC50 [1] | IC50 (Leukotriene C4 synthase) | IC50 [2] | IC50 (Nitric oxide synthase 1) | IC50 [3] | IC50 [4] | IC50 [5] | IC50 (Cytochrome P450 3A4) | Ki (Cytochrome P450 3A4)

CCC1(c2ccccc2)C(=O)NC(=O)NC1=O [PHENOBARBITAL]
Not Active: IC50 [1] | IC50 (Leukotriene C4 synthase) | IC50 [2] | IC50 (Nitric oxide synthase 1) | IC50 [3] | IC50 [4] | IC50 [5] | IC50 (Cytochrome P450 3A4) | Ki (Cytochrome P450 3A4)
